Our source for the IC50 values is US9540391B2, “Isomannide derivatives as inhibitors of soluble epoxide hydrolase” (SANOFI, priority 2013, dated 2017).

pIC50: −log10 of the molar value. Structures can show the parent of a compound that is named as a salt.

The target in the experiment is T1, recombinant sEH (Homo sapiens, UniProt P34913).
T1 construct: made in house; host or cells: Sf9 insect cells
T1 sequence (P34913 1-555): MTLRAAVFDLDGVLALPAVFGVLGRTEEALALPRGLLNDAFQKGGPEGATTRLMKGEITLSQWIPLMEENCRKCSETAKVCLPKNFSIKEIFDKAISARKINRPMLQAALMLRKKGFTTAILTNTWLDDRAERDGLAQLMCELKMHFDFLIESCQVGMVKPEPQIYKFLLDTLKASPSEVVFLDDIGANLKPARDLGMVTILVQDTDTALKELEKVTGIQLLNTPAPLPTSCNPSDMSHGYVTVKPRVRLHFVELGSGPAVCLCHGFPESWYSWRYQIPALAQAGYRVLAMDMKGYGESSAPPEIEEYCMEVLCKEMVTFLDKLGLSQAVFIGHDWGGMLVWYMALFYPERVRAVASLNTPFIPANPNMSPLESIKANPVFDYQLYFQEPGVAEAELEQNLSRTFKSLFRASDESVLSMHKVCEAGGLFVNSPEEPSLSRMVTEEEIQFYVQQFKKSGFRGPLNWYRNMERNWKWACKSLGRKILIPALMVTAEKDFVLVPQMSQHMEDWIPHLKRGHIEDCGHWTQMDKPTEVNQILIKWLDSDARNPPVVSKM
Briefly: biochemical screening assay for inhibition of soluble epoxide hydrolase (fluorometric, Phome substrate). The method in brief:
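Reading fluorescence before substrate addition and after completion corrected for autofluorescence. Reaction: 5 μM Phome, 2 nM recombinant human sEH (Sf9-expressed), compound 0.0001–10 μM, 25 mM Hepes with 0.01% albumin, 15 min pre-incubation then 60 min at 30 °C; IC50 derived from % inhibition.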
Turning to `O=C(NC1CCCCC1)N[C@H]1CO[C@H]2[C@@H]1OC[C@@H]2Oc1cncc(F)c1` [Example 35, 1-Cyclohexyl-3-[(3S,3aR,6S,6aS)-6-(5-fluoro-pyridin-3-yloxy)-hexahydro-furo[3,2-b]furan-3-yl]-urea], the negative logarithm of the IC50 (pIC50) (commonly −log10 of the IC50, conventionally taken in molar units) was 7.92.

In the case of `Cc1ncccc1O[C@H]1CO[C@H]2[C@@H]1OC[C@@H]2NC(=O)NC(C)c1ccc(F)cc1` (stereo partly drawn) [Example 214, 1-[1-(4-Fluoro-phenyl)-ethyl]-3-[(3S,3aR,6S,6aS)-6-(2-methyl-pyridin-3-yloxy)-hexahydro-furo[3,2-b]furan-3-yl]-urea], the negative logarithm of the IC50 (pIC50) is 7.85. Consider `O=C(Nc1cccc(F)c1)N[C@H]1CO[C@H]2[C@@H]1OC[C@@H]2C#Cc1ccccc1` [Example 294, 1-(3-Fluoro-phenyl)-3-((3S,3aR,6S,6aR)-6-phenylethynyl-hexahydro-furo[3,2-b]furan-3-yl)-urea], for which the pIC50 was 6.91. For `Cc1ncccc1O[C@H]1CO[C@H]2[C@@H]1OC[C@@H]2NC(=O)NC1CCSCC1` [Example 228, 1-[(3S,3aR,6S,6aS)-6-(2-Methyl-pyridin-3-yloxy)-hexahydro-furo[3,2-b]furan-3-yl]-3-(tetrahydro-thiopyran-4-yl)-urea], the pIC50 is 8.05. With `O=C(Nc1ccc(OCc2ccccc2)cc1)NC1COC2C(C=Cc3ccccc3)COC12` [Example 324, 1-(4-Benzyloxy-phenyl)-3-[(3S,3aR,6R)-6-((S)-(Z)-styryl)-hexa-hydro-furo[3,2-b]furan-3-yl]-urea], the pIC50 was 7.09. In the case of `Cc1ncccc1O[C@H]1CO[C@H]2[C@@H]1OC[C@@H]2NC(=O)NCC1CN(C)CCO1` (stereo partly drawn) [Example 219, 1-(4-Methyl-morpholin-2-ylmethyl)-3-[(3S,3aR,6S,6aS)-6-(2-methyl-pyridin-3-yloxy)-hexahydro-furo[3,2-b]furan-3-yl]-urea], the pIC50 is 5.72. With `O=C(Nc1ccc(OC(F)(F)F)cc1)N[C@H]1CO[C@@H]2[C@@H](CCc3ccsc3)CO[C@@H]21` [Example 374, 1-[(3S,3aR,6S,6aR)-6-(2-Thiophen-3-yl-ethyl)-hexahydro-furo[3,2-b]furan-3-yl]-3-(4-trifluoromethoxy-phenyl)-urea], the negative-log IC50 (pIC50) was 6.63. As for `O=C(NC1CCCCC1)N[C@H]1CO[C@H]2[C@@H]1OC[C@@H]2Sc1ccccn1` [Example 54, 1-Cyclohexyl-3-[(3S,3aR,6S,6aS)-6-(pyridin-2-ylsulfanyl)-hexahydro-furo[3,2-b]furan-3-yl]-urea], the figure is 9.00. As for `O=C(Nc1ccc(F)cc1)NC1COC2C(CCc3ccsc3)COC12` [Example 366, 1-(4-Fluoro-phenyl)-3-[(3S,3aR,6R)-6-((S)-2-thiophen-3-yl-ethyl)-hexa-hydro-furo[3,2-b]furan-3-yl]-urea], the figure is 8.05; as for `COc1ccc([C@H](C)NC(=O)N[C@H]2CO[C@H]3[C@@H]2OC[C@@H]3Oc2ccc(F)cc2)cc1` [Example 167, 1-[(3S,3aR,6S,6aS)-6-(4-Fluoro-phenoxy)-hexahydro-furo[3,2-b]furan-3-yl]-3-[(S)-1-(4-methoxy-phenyl)-ethyl]-urea], 7.18. With `Cc1cc(C)cc(NC(=O)NC2COC3C(C=Cc4ccsc4)COC23)c1` [Example 336, 1-(3,5-Dimethyl-phenyl)-3-[(3S,3aR,6S,-6aR)-6-((Z)-2-thiophen-3-yl-vinyl)-hexahydro-furo[3,2-b]furan-3-yl]-urea], the pIC50 was 7.33. For `O=C(N[C@H]1CO[C@H]2[C@@H]1OC[C@@H]2Oc1ccc(F)cc1)NC1(c2cccs2)CCOCC1` [Example 169, 1-[(3S,3aR,6S,6aS)-6-(4-Fluoro-phenoxy)-hexahydro-furo[3,2-b]furan-3-yl]-3-(4-thiophen-2-yl-tetrahydro-pyran-4-yl)-urea], the negative logarithm of the IC50 (pIC50) was 5.35. As to `Cc1ncccc1O[C@H]1CO[C@H]2[C@@H]1OC[C@@H]2NC(=O)NC1CCCCC1` [Example 76, 1-cyclohexyl-3-[(3S,3aR,6S,6aS)-6-(2-methyl-pyridin-3-yloxy)-hexahydro-furo[3,2-b]furan-3-yl]-urea], the pIC50 is 8.70. Regarding `Cc1ncccc1O[C@H]1CO[C@H]2[C@@H]1OC[C@@H]2NC(=O)NC1CCN(C(=O)C(C)C)CC1` [Example 212, 1-(1-Isobutyryl-piperidin-4-yl)-3-[(3S,3aR,6S,6aS)-6-(2-methyl-pyridin-3-yloxy)-hexahydro-furo[3,2-b]furan-3-yl]-urea], the pIC50 is 7.43. As for `Cc1ncccc1O[C@H]1CO[C@H]2[C@@H]1OC[C@@H]2NC(=O)NCc1cccc2c1OCCO2` [Example 200, 1-(2,3-Dihydro-benzo[1,4]dioxin-5-ylmethyl)-3-[(3S,3aR,6S,6aS)-6-(2-methyl-pyridin-3-yloxy)-hexahydro-furo[3,2-b]furan-3-yl]-urea], the figure is 7.06; as for `Cc1ncccc1O[C@H]1CO[C@H]2[C@@H]1OC[C@@H]2NC(=O)NC1CC2CC1C1CCCC21` (stereo partly drawn) [Example 262, 1-[(3S,3aR,6S,6aS)-6-(2-Methyl-pyridin-3-yloxy)-hexahydro-furo[3,2-b]furan-3-yl]-3-(octahydro-4,7-methano-inden-5-yl)-urea], 8.70; as for `Cc1ncccc1O[C@H]1CO[C@H]2[C@@H]1OC[C@@H]2NC(=O)NCC1CCC(=O)N1` (stereo partly drawn) [Example 201, 1-[(3S,3aR,6S,6aS)-6-(2-Methyl-pyridin-3-yloxy)-hexahydro-furo[3,2-b]furan-3-yl]-3-(5-oxo-pyrrolidin-2-ylmethyl)-urea], 5.24. `Cc1ncccc1O[C@H]1CO[C@H]2[C@@H]1OC[C@@H]2NC(=O)NC1CCOCC1` [Example 216, 1-[(3S,3aR,6S,6aS)-6-(2-Methyl-pyridin-3-yloxy)-hexahydro-furo[3,2-b]furan-3-yl]-3-(tetrahydro-pyran-4-yl)-urea]: the pIC50 is 6.90. As to `O=C(NCCc1ccccc1)N[C@H]1CO[C@H]2[C@@H]1OC[C@@H]2/C=C\c1ccsc1` [Example 344, 1-Phenethyl-3-[(3S,3aR,6S,6aR)-6-((Z)-2-thiophen-3-yl-vinyl)-hexa-hydro-furo[3,2-b]furan-3-yl]-urea], the pIC50 is 7.38. As for `COCC1(NC(=O)N[C@H]2CO[C@H]3[C@@H]2OC[C@@H]3Oc2cccnc2C)CCCC1` [Example 210, 1-(1-Methoxymethyl-cyclopentyl)-3-[(3S,3aR,6S,6aS)-6-(2-methyl-pyridin-3-yloxy)-hexahydro-furo[3,2-b]furan-3-yl]-urea], the figure is 6.84.

For `Cc1ncccc1O[C@H]1CO[C@H]2[C@@H]1OC[C@@H]2NC(=O)NC(C)(C)c1cccnc1` [Example 233, 1-(1-Methyl-1-pyridin-3-yl-ethyl)-3-[(3S,3aR,6S,6aS)-6-(2-methyl-pyridin-3-yloxy)-hexahydro-furo[3,2-b]furan-3-yl]-urea], the pIC50 is 5.45. The value for `O=C(NC1CCCCC1)N[C@H]1CO[C@@H]2[C@@H](CCc3ccccc3)CO[C@@H]21` [Example 349, 1-Cyclohexyl-3-((3S,3aR,6S,6aR)-6-phenethyl-hexahydro-furo[3,2-b]furan-3-yl)-urea] was 7.43; that for `CC1(c2ccc(O[C@H]3CO[C@H]4[C@@H]3OC[C@@H]4NC(=O)NC3CCCCC3)cc2)CCCCC1` [Example 124, 1-Cyclohexyl-3-{(3S,3aR,6S,6aS)-6-[4-(1-methyl-cyclohexyl)-phenoxy]-hexahydro-furo[3,2-b]furan-3-yl}-urea] was 8.40. For the compound `O=C(NC1CCCCC1)N[C@H]1CO[C@H]2[C@@H]1OC[C@@H]2Oc1ccccc1CN1CCOCC1` [Example 123, 1-Cyclohexyl-3-[(3S,3aR,6S,6aS)-6-(2-morpholin-4-ylmethyl-phenoxy)-hexahydro-furo[3,2-b]furan-3-yl]-urea; trifluoroacetate], the pIC50 is 8.40.

For `Cc1ncccc1O[C@H]1CO[C@H]2[C@@H]1OC[C@@H]2NC(=O)NC1CC(C)CCC1C(C)C` (stereo partly drawn) [Example 263, 1-(2-Isopropyl-5-methyl-cyclohexyl)-3-[(3S,3aR,6S,6aS)-6-(2-methyl-pyridin-3-yloxy)-hexahydro-furo[3,2-b]furan-3-yl]-urea], the pIC50 was 7.60.

Turning to `Cc1ccc(S(=O)(=O)O[C@@H]2CO[C@H]3[C@@H]2OC[C@@H]3NC(=O)NC2CCCCC2)cc1` [Example 2, toluene-4-sulfonic acid (3R,3aS,6S,6aR)-6-(3-cyclohexyl-ureido)-hexahydro-furo[3,2-b]furan-3-yl ester], the pIC50 was 7.72. As to `CC(C)(C)c1ccc(O[C@H]2CO[C@H]3[C@@H]2OC[C@@H]3NC(=O)NC2CCCCC2)cc1` [Example 103, 1-[(3S,3aR,6S,6aS)-6-(4-tert-Butyl-phenoxy)-hexahydro-furo[3,2-b]furan-3-yl]-3-cyclohexyl-urea], the pIC50 was 8.15. `Cc1nn(C(C)C)cc1NC(=O)N[C@H]1CO[C@H]2[C@@H]1OC[C@@H]2Oc1cccnc1C` [Example 225, 1-(1-Isopropyl-3-methyl-1H-pyrazol-4-yl)-3-[(3S,3aR,6S,6aS)-6-(2-methyl-pyridin-3-yloxy)-hexahydro-furo[3,2-b]furan-3-yl]-urea]: the pIC50 is 7.37.

In the case of `O=C(NC1CCCCC1)N[C@H]1CO[C@H]2[C@@H]1OC[C@@H]2Oc1ccc(F)c(Br)c1` [Example 146, 1-[(3S,3aR,6S,6aS)-6-(3-Bromo-4-fluoro-phenoxy)-hexahydro-furo[3,2-b]furan-3-yl]-3-cyclohexyl-urea], the pIC50 was 8.70.
